The record followed here is ChEMBL document CHEMBL1138758, “Efficient method for high-throughput virtual screening based on flexible docking: discovery of novel acetylcholinesterase inhibitors” (J Med Chem, 2004).

The assay is described as follows: Inhibitory activity towards acetylcholine esterase (AChE). Also noted: species or system Tetronarce californica.

With `CC(Cc1ccc(O)cc1)C1CCC(C)C(c2ccc(O)cc2)C1` (centres undefined), the IC50 (commonly the midpoint of a concentration-inhibition curve) was 0.62 µM.
The value for `CCCc1cc(-n2cccn2)ccc1C(=O)ONC(=N)c1ccc(C(F)(F)F)cc1` was 13 µM.
Consider `Cc1c(/N=C/c2ccccc2O)cc2c(c1N)C(C)(C)CC2(C)C`, for which the IC50 came to 16 µM. This IC50 and that of the molecule before are within 1.5-fold of each other.
The value for `Cc1nc(N)ncc1-c1nnnn1-c1ccc(-c2ccccc2)cc1` was 27 µM.
In turn, `Fc1ccc(N(Cc2ccc3c(c2)OCO3)C(=S)Nc2cccc(C(F)(F)F)c2)cc1` showed an IC50 of 8 µM. Against the preceding molecule, the IC50 is about 3.4-fold lower.
The value for `Cc1cc(C2(c3cc(C)c(O)c(C)c3)CCCCC2)cc(C)c1O` was 15 µM.
The value for `O=C(CC1S/C(=N/c2ccc(C3CCCCC3)cc2)NC1=O)Nc1ccc(OC(F)(F)F)cc1` (centres undefined) was 2.9 µM.
Molecule `CN(C)c1ccc(-c2c3cc(O)c(=O)cc-3oc3cc(O)c(O)cc23)cc1` returned an IC50 of 22 µM.
As for `COc1ccc(/N=C/c2cn(-c3ccc(OC)cc3)cc2/C=N/c2ccc(OC)cc2)cc1`, the figure is 14 µM; as for `C/C(=N/O)c1ccc(Cl)c(NC(=O)c2c(-c3ccccc3Cl)noc2C)c1`, 6.7 µM; as for `COc1cc(N)c(Cl)cc1C(=O)NC1CCN(Cc2ccccc2)CC1` [CLEBOPRIDE], 0.89 µM.
The value for `O=C(O[C@@H]1Cc2c(O)cc(O)cc2O[C@@H]1c1ccc(O)c(O)c1)c1cc(O)c(O)c(O)c1` [EPICATECHIN GALLATE] was 28 µM; that for `O=C(Nc1cccc(C2=NCCN2)c1)Nc1cccc(C2=NCCN2)c1` [IMIDOCARB] was 0.59 µM.
For `CNC(=O)Oc1ccc2c(c1)[C@]1(C)CCN(C)[C@@H]1N2C` [PHYSOSTIGMINE], the IC50 worked out at 0.36 µM. This IC50 lies about 1.6-fold lower than the previous one.
